According to PubChem BioAssay (NCI):
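Five concentrations, 48 hours, 96-well plates. The concentration for full growth arrest is given as TGI.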

Columns and labels:
Test in all cases: NCI tumour cell line growth inhibition, 48 h
NCI-H23 lung = system: NCI-H23 lung
SW-620 colon = system: SW-620 colon
CCRF-CEM leukemia = system: CCRF-CEM leukemia
HT29 colon = system: HT29 colon
ACHN renal = system: ACHN renal
UO-31 renal = system: UO-31 renal
SK-MEL-28 melanoma = system: SK-MEL-28 melanoma
EKVX NSCLC = system: EKVX NSCLC
SK-MEL-2 melanoma = system: SK-MEL-2 melanoma
OVCAR-5 ovarian = system: OVCAR-5 ovarian
SNB-19 CNS = system: SNB-19 CNS
SF-295 CNS = system: SF-295 CNS
CAKI-1 renal = system: CAKI-1 renal
M14 melanoma = system: M14 melanoma
UACC-257 melanoma = system: UACC-257 melanoma
RPMI-8226 leukemia = system: RPMI-8226 leukemia
DLD-1 colon = system: DLD-1 colon
SK-OV-3 ovarian = system: SK-OV-3 ovarian
HOP-92 NSCLC = system: HOP-92 NSCLC
IGROV1 ovarian = system: IGROV1 ovarian
SF-268 CNS = system: SF-268 CNS
KM12 colon = system: KM12 colon
NCI-H522 lung = system: NCI-H522 lung
SNB-78 CNS = system: SNB-78 CNS
HOP-18 NSCLC = system: HOP-18 NSCLC
SF-539 CNS = system: SF-539 CNS
LOX IMVI melanoma = system: LOX IMVI melanoma
A549 NSCLC = system: A549 NSCLC
COLO 205 colon = system: COLO 205 colon
MOLT-4 leukemia = system: MOLT-4 leukemia
NCI-H226 lung = system: NCI-H226 lung
OVCAR-4 ovarian = system: OVCAR-4 ovarian
SN12C renal = system: SN12C renal
SNB-75 CNS = system: SNB-75 CNS
XF 498 CNS = system: XF 498 CNS
M19-MEL melanoma = system: M19-MEL melanoma
MALME-3M melanoma = system: MALME-3M melanoma
HOP-62 NSCLC = system: HOP-62 NSCLC
LXFL 529 NSCLC = system: LXFL 529 NSCLC
DMS 273 small cell lung = system: DMS 273 small cell lung
NCI-H460 lung = system: NCI-H460 lung
K-562 leukemia = system: K-562 leukemia
786-0 renal = system: 786-0 renal
HL-60(TB) leukemia = system: HL-60(TB) leukemia
HCC-2998 colon = system: HCC-2998 colon
UACC-62 melanoma = system: UACC-62 melanoma
OVCAR-3 ovarian = system: OVCAR-3 ovarian
SK-MEL-5 melanoma = system: SK-MEL-5 melanoma
U251 CNS = system: U251 CNS
KM20L2 colon = system: KM20L2 colon
OVCAR-8 ovarian = system: OVCAR-8 ovarian
TK-10 renal = system: TK-10 renal
RXF-631 renal = system: RXF-631 renal
HCT-15 colon = system: HCT-15 colon

## Cc1ccc(-c2c(N)[n+]([O-])c3ccccc3[n+]2[O-])cc1
NCI-H23 lung
  TGI: 19.5 µM
SW-620 colon
  TGI: 23.3 µM
CCRF-CEM leukemia
  TGI: > 100 µM
HT29 colon
  TGI: 31.4 µM
ACHN renal
  TGI: 29.1 µM
UO-31 renal
  TGI: 29.7 µM
SK-MEL-28 melanoma
  TGI: 20 µM
EKVX NSCLC
  TGI: 50.2 µM
SK-MEL-2 melanoma
  TGI: 22.9 µM
OVCAR-5 ovarian
  TGI: 32.5 µM
SNB-19 CNS
  TGI: 25.4 µM
SF-295 CNS
  TGI: 45.1 µM
CAKI-1 renal
  TGI: 9.97 µM
M14 melanoma
  TGI: 25.3 µM
UACC-257 melanoma
  TGI: 23.5 µM
RPMI-8226 leukemia
  TGI: > 100 µM
DLD-1 colon
  TGI: 28.7 µM
SK-OV-3 ovarian
  TGI: 35.9 µM
HOP-92 NSCLC
  TGI: > 100 µM
IGROV1 ovarian
  TGI: 29.8 µM
SF-268 CNS
  TGI: 73.8 µM
KM12 colon
  TGI: 26.7 µM
NCI-H522 lung
  TGI: 3.21 µM
SNB-78 CNS
  TGI: 37.1 µM
HOP-18 NSCLC
  TGI: 29.1 µM
SF-539 CNS
  TGI: 29.3 µM
LOX IMVI melanoma
  TGI: 25.4 µM
A549 NSCLC
  TGI: 62.3 µM
COLO 205 colon
  TGI: 34.7 µM
MOLT-4 leukemia
  TGI: > 100 µM
NCI-H226 lung
  TGI: 39.6 µM
OVCAR-4 ovarian
  TGI: 33.1 µM
SN12C renal
  TGI: 27.8 µM
SNB-75 CNS
  TGI: 26 µM
XF 498 CNS
  TGI: 19.5 µM
M19-MEL melanoma
  TGI: 24.8 µM
MALME-3M melanoma
  TGI: 10.8 µM
HOP-62 NSCLC
  TGI: 31 µM
LXFL 529 NSCLC
  TGI: 18.3 µM
DMS 273 small cell lung
  TGI: 29.5 µM
NCI-H460 lung
  TGI: 47 µM
K-562 leukemia
  TGI: > 100 µM
786-0 renal
  TGI: 28.6 µM
HL-60(TB) leukemia
  TGI: > 100 µM
HCC-2998 colon
  TGI: 30.1 µM
UACC-62 melanoma
  TGI: 20.1 µM
OVCAR-3 ovarian
  TGI: 30.3 µM
SK-MEL-5 melanoma
  TGI: 24.4 µM
U251 CNS
  TGI: 27.8 µM
KM20L2 colon
  TGI: 38.9 µM
OVCAR-8 ovarian
  TGI: > 100 µM
TK-10 renal
  TGI: 33 µM
RXF-631 renal
  TGI: 3.19 µM
HCT-15 colon
  TGI: 15.3 µM
